Measured values as given in US20220193189A1, “USE OF Dvl3-DEP PEPTIDE IN PREPARATION OF MEDICAMENT FOR REPAIRING SERTOLI CELL INJURY IN TESTES” (The Second Affiliated Hospital and Yuying Children's …, priority 2020, published 2022).

B1: DEP peptide: Dvl3-DEP peptide with amino acid sequence SEQ ID NO. 1, overexpressed in Sertoli cells (protein)
chain: PESGLEVRDRMWLKITIPNAFIGSDVVDWLYHNVEGFTDRREARKYASNLLKAGFIRHTVNKITFSEQCYYIFGD
modifications: amino acid sequence of Dvl3-DEP peptide
notes: 1, overexpressed in Sertoli cells

Experiments:
[1] = test system: polymerized/free Tubulin in Sertoli cells; test: Microtubule/Tubulin polymerization test (ultracentrifugation, Western blot); format: cell-based, SD rat; conditions: after PFOS treatment
From the text: (§1) A total of 10 male SD rats at the age of 20 days were sacrificed and testes were collected. The testicular envelope and free seminiferous tubules were removed, and the remaining tissue was cut to 1 mm^3 with scissors and then digested successively with trypsin, protease inhibitor, collagenase, hyaluronidase, and other enzymes. Cell masses obtained from digestion were pipetted up and down with a glass Pasteur pipette and then subjected to density gradient centrifugation, and finally the volume of precipitated cells was measured and converted into the number of cells. Finally, the cells were cultivated in an F12/DMEM cell culture medium with human transferrin (5 μg/mL), bovine insulin (10 μg/mL), bacitracin (5 μg/mL), epithelial growth factor (EGF) (2.5 ng/mL), and the like. The cells were cultivated at 5% CO2 and 35° C. to obtain primary Sertoli cells.
Isolation and cultivation of cells were conducted according to the method in Example 2, and obtained cells were inoculated in a prepared 6-well plate. Cells in each group were collected immediately after the experiment ended. […] Then the polymerized cytoskeleton protein (a precipitate obtained from the ultracentrifugation) and the monomeric cytoskeleton protein (a supernatant obtained from the ultracentrifugation) in the cell lysate system were detected separately by Western blot. […]

[2] = test system: polymerized/free Actin in Sertoli cells; test: G-Actin/F-actin polymerization test (ultracentrifugation, Western blot); format: cell-based, SD rat; conditions: after PFOS treatment
From the text: as §1
Isolation and cultivation of cells were conducted according to the method in Example 2, and obtained cells were inoculated in a prepared 6-well plate. Cells in each group were collected immediately after the experiment ended. Related Actin and Tubulin polymerization tests were conducted on cells in the DEP peptide overexpression group and cells in the empty plasmid transfection group using G-Actin/F-actin polymerization detection kit (G-Actin/F-actin In Vivo Assay Biochem Kit, BK037, Cytoskeleton, Inc) and Microtubule/Tubulin polymerization detection kit (Microtubule/Tubulin In Vivo Assay Biochem Kit, BK038, Cytoskeleton, Inc). Related detection methods can refer to product descriptions. The main purpose of these tests is to separate polymerized cytoskeleton proteins (F-actin and Microtubule) and free monomeric cytoskeleton proteins (G-actin and Tubulin) in a cell lysate by ultracentrifugation. Then the polymerized cytoskeleton protein (a precipitate obtained from the ultracentrifugation) and the monomeric cytoskeleton protein (a supernatant obtained from the ultracentrifugation) in the cell lysate system were detected separately by Western blot. […]

[3] = cited from earlier work
[4] = test system: Sertoli cells; test: IF staining of tight junction-associated protein ZO-1 in Sertoli cells in vitro; format: cell-based, SD rat; conditions: PFOS 20 μM for 24 h, empty plasmid transfection group, day 6, vs blank control group
From the text: as §1, with “Sertoli cells. […]” for “Sertoli cells.”
In order to observe the tight junction morphology among Sertoli cells cultivated in vitro, IF staining (green fluorescent) was conducted using an antibody for the Sertoli cell tight junction-associated protein ZO-1 (ThermoFisher, 61-7300), and the nucleus was stained with DAPI (blue fluorescence) after the above staining. After mounting, a fluorescence microscope was used to observe and take pictures.

[5] = pCI-neo empty plasmid transfection group

| Molecule | Microtubule level (precipitate of ultracentrifugation, Western blot) [1, 5] | F-actin level (precipitate of ultracentrifugation, Western blot) [2, 5] | human metabolic half-life [3] | cell-cell junction interface (ZO-1 IF staining) [4] | Microtubule level (precipitate of ultracentrifugation, Western blot) ([1]; DEP peptide overexpression group, positive control 20 uM paclitaxel) | F-actin level (precipitate of ultracentrifugation, Western blot) ([2]; DEP peptide overexpression group, positive control 0.1 uM phalloidin) | free G-actin content in the cell lysate supernatant (Western blot) ([2]; empty plasmid transfection group vs DEP peptide overexpression group) |
| --- | --- | --- | --- | --- | --- | --- | --- |
| O=S(=O)(O)C(F)(F)C(F)(F)C(F)(F)C(F)(F)C(F)(F)C(F)(F)C(F)(F)C(F)(F)F [PFOS, Perfluorooctane sulphonate] | low, which was almost comparable to that in the negative control group | low, which was almost comparable to that in the negative control group | more than 5 years | significantly damaged |  |  |  |
| B1 |  |  |  |  | lower than that in the positive control group but significantly higher than that in the empty plasmid transfection group | lower than that in the positive control group but significantly higher than that in the empty plasmid transfection group | empty plasmid transfection group was higher than that of the DEP peptide overexpression group |
